Reference: US9901650B2, “Methods for evaluating brain-wide paravascular pathway for waste clearance function and methods for treating neurodegenerative disorders based thereon” (University of Rochester, priority 2013, dated 2018)
Entries after “also recorded” stand apart in the source; their conditions may differ. Read-outs that look alike come from different tables or passages of the source. No end group written: not given here.

Experiments:
[1] = rat, in vivo
Description: (§1) Sprague Dawley rats (2-3 month old females) were anesthetized with phenobarbital and lumbar intrathecal catheters placed. Imaging was performed using a custom-built, MRI-compatible PET scanner for the rat brain in combination with a 9.4T microMRI (ref). […] The PET ring (ID 38 mm and accommodating the head of a rat) consists of 12 detector blocks consisting of a 4×8 array of 2.22×2.22×5 mm^3 lutetium oxyorthosilicate (LSO) crystals assembled with a thin reflective foil and coupled to a matching non-magnetic S8550 APD array (ref). PET data are transferred via optical fibers to an external (PCI)-based data acquisition board (ref). For simultaneous PET/MRI imaging a custom-made volume RF coil which fits inside the PET ring was used. The 9.4T microMRI used in all experiments is a superconducting horizontal bore magnet (Bruker Biospin 94/20, 400 MHz, Magnex scientific) interfaced to a Bruker Advance console and controlled by Paravision 5.0 software (Bruker Bio Spin, Billerica, Mass.). The magnet is equipped with an actively shielded combined RT-shim and gradient system (B-GA 12S) that can produce a maximum gradient strength of 200 mT/m. […]

[2] = Dynamic contrast-enhanced MRI after intrathecal infusion of paramagnetic contrast: regional tissue uptake (TACs, mAUC)
Description: Female Sprague Dawley rats were used (Taconics, body weight: 220-280 g). For anesthesia, the animals were induced with 3% isofluorane in oxygen using an induction chamber and then received an intra-peritoneal injection of 40 mg/kg […] (Nembutal® Sodium solution, OVATION, Pharmaceuticals, Inc., Deerfield, Ill., USA). The animals were allowed to breathe spontaneously during the entire experiment. Non-invasive monitors (pulse-oximetry, respiratory rate and rectal temperature probe, SA Instruments, Inc., Stony Brook, N.Y.) were placed to assure adequate oxygenation (O2-saturation>97%), ventilation (respiratory rate 50-65 breath per minute) and normal body temperature (36.5° C.-37.5° C.) during the surgical procedures. A 24-gauge catheter was inserted into the tail vein for administration of fluids and supplemental anesthesia. The animal was positioned in a stereotaxic frame (Kopf Instruments, frame #9) and the head flexed to 50 degrees. For the brief surgical procedure, anesthesia was supplemented with isoflurane (0.8-1.2%) delivered in an 1:1 O2:Air mixture.
The atlanto-occipital membrane was exposed via a midline dorsal neck incision and a small incision was made to expose the underlying dura mater. A polyethylene catheter (6-cm long, 0.28 mm ID×0.61 mm OD, (Solomon Scientific, Plymouth Meeting, Pa.)) filled with normal saline was advanced 1-mm into the intrathecal space via a small durotomy made using a 23-gauge needle and was fixed and sealed with super glue. The skin incision was closed around the catheter.
Following surgery, the rats were flipped supine and positioned in a custom-made acrylic cradle fitted with a head fixation device and a snout mask for delivery of supplemental oxygen. The head of the animal was positioned on top of a 3.0 cm custom-made radio-frequency (rf) receiver coil. Non-invasive, MRI compatible monitors (pulse-oximetry, respiratory rate and rectal temperature probe, SA Instruments, Inc., Stony Brook, N.Y.) were repositioned for continuous monitoring of vital signs while the animal underwent MRI imaging. During imaging, body temperature was kept strictly within 36.5-37.5° C. during imaging using a computer assisted air heating system (SA Instruments, Inc., Stony Brook, N.Y.). The intrathecal catheter was connected to a long PE 20 line filled with paramagnetic MR contrast diluted in 0.9% NaCl attached to a 1 cc-syringe and microinfusion pump (Baxter Model AS50 infusion Pump, Baxter Healthcare Corporation, Illinois, USA). The tail vein catheter was used for maintenance hydration (0.9% NaCl, 4 cc/kg/hr) and supplemental anesthesia (Nembutal®, 5-10 mg/kg IV) administered every 2 hrs as guided by the respiratory rate.
All imaging protocols were performed on a 9.4T/20 MRI instrument interfaced to a Bruker Advance console and controlled by Paravision 5.0 software (Bruker Bio Spin, Billerica, Mass.). A custom-made 3-cm surface radio-frequency coil was used as a receiver and a 16-cm diameter volume coil (Bruker) was used as a transmitter. […] For all experiments a 60 mM (1:8 volume ratio diluted in 0.9% NaCl) Gd-DTPA phantom placed in the vicinity of animal's head was used for image intensity normalization over the time series. […] A total of 80 μl of the paramagnetic contrast agent was delivered intrathecally at an infusion rate of 1.6 μl/min (total infusion time: 50 min). After completion of the intrathecal infusion, the 3D MRI acquisitions continued over 3.9 hrs. At the end of the experiment the animal was euthanized with an overdose of Nembutal.
The general MRI image processing procedure consisted of head motion correction, intensity normalization, smoothing and voxel-by-voxel conversion to % of baseline signal. SPM8 (World Wide Web at fil.ion.ucl.ac.uk/spm) was used for this. First, the acquired T1-weighted MRI images were exported as DICOM files and converted to 3D Nlfti image format.

[3] = K-means cluster analysis of contrast-enhanced MRI, 4 mid-sagittal slices
Description: Non-parametric segmentation to group voxels in the MRI images on the basis of similar kinetics was performed using a k-means cluster algorithm (PMOD Version 3.307, PMOD Technologies, Ltd, Zurich, Switzerland) on four sagittal slices at the level of the aqueduct from each of the 4D T1-weighted MRIs. A volume-of-interest mask containing the brain only was created for the cluster analysis. The number of clusters (K) used was determined by the K which was able to segment out voxels adjacent to the large vessels such as basilar artery (including pituitary recess) and olfactory artery complex. This was done on an interactive, per animal basis.
All data are presented as mean±SD.

[4] = Dynamic integrated MRI-PET imaging after intrathecal infusion; conditions: lumbar intrathecal infusion
Description: as §1

glymphatic system [5] = assay: Brain clearance of 125I-Aβ40 and 14C-inulin after injection into the frontal cortex, pharmacological intervention; assay type: in vivo, mice
Description: The role of RAS on clearance of exogenous ^125I-Aβ and ^14C-inulin were determined at 30 minutes after their injection into the frontal cortex (Xie et al., 2013).
Briefly, a stainless steel guide cannula was implanted stereotaxically into the right caudate-putamen or frontal cortex of anesthetized mice (ketamine (100 mg/kg) and xylazine (10 mg/kg). For the frontal cortex, the coordinate of the cannula tip was 0.7 mm anterior and 3.0 mm lateral to the bregma, and 1.3 mm below the surface of the brain. Animals were allowed to recover after surgery. The experiments were performed before substantial chronic process occurred, but allowing time for the BBB repair to large molecules, as reported (Deane et al., 2004). Drugs were pre-injected for 10 minutes before injection of the radio-labeled molecules.
Injection of the mixture of tracers: Mock CSF (0.5 μL) containing ^125I-labeled Aβ40 (10 nM monomer) together with ^14C-inulin (0.05 μCi, an inert molecule for bulk flow) was microinfused into brain ISF over 5 minutes.
At the end of the experiments brain was removed and prepared for radioactivity analysis and TCA analyses.
^125I-radioactivities were determined in a gamma counter (Wallac Vizard Gamma Counter, Perkin Elmer). For ^14C-counting, the samples were solubilized in 0.5 ml tissue solubilizer (Perkin Elmer) overnight, followed by addition of 5 ml of scintillation cocktail (Packard Ultima Gold) and analyzed in a liquid scintillation counter (Beckman Coulter Counter).
All calculations of clearance parameters were carried out as described above or by routine methods (Deane et al., 2004; Xie et al., 2013). Briefly, the percentage of radioactivity remaining in the brain after microinjection was determined as % recovery in brain=100×(Nb/Ni), where Nb is the radioactivity remaining in the brain at the end of the experiment and Ni is the radioactivity injected into the brain ISF, i.e., the d.p.m. for ^14C-inulin and the c.p.m. for the TCA-precipitable ^125I-radioactivity. Inulin was used as a metabolically inert polar molecule which is neither transported across the BBB nor retained by the brain; its clearance rate provides a measure of the ISF convective bulk flow. For each group there were 3-6 mice, and data expressed as mean±SEM. P<0.5 was taken as statistically significant as determined using T-test.

glymphatic system [6] = assay: Brain influx of 125I-Aβ40 and 14C-inulin after injection into the cisterna magna, pharmacological intervention; assay type: in vivo, mice
Description: The role of RAS on the influx of these molecules into brain was determined by injecting these molecules into the subarachnoid space (cisterna magna) and determining brain levels after 30 minutes.
A small volume (5 μL) of mock CSF containing ^125I-Aβ40 (10 nM) and ^14C-inulin (0.05 μCi) was microinjected into the cistern magna at 1 μL/min. At the end of the experiment (30 minutes) the brain was removed and analyzed for radioactivity.

AQP4-M1 expression = AQP4-M1 expression by qPCR in cultured primary cortical astrocytes; assay type: cell-based, mouse; conditions: vs. control; siRNA transfected for six days
Text: (A) The Aqp4 gene has two transcription initiation site, with transcription initiated at each site resulting in two AQP4 mRNA variants: AQP4-M1 which includes Exons 0-4 of the Aqp4 gene and AQP4-M23 which lacks Exon 0. (B) AQP4-M23 (the predominant form in the CNS under physiological conditions) permits perivascular AQP4 packing while AQP4-M1 prevents it; thus increasing AQP4-M1 expression impairs AQP4 polarization (Crane et el. J Biol Chem 2009; Furman et al. Proc Nat Acad Sci 2003). (C) The expression of AQP4-M1 was evaluated by real-time quantitative PCR (qPCR) in the mouse ipsilateral cortex 3 days after TBI using PCR primers specifically targeting Exon 0 of the AQP4-M1 transcript. Compared to AQP4-M1 expression in the control (sham) cortex, TBI increased AQP4-M1 expression by approximately two-fold (*P<0.05, t-test; n=5 per group). (D) Using an siRNA-based approach targeting Exon 0 of the AQP4-M1 variant, the expression of AQP4-M1 could be efficiently knocked down in cultured primary mouse cortical astrocytes. Three siRNA duplexes were designed to target Exon 0 of the AQP4-M1 transcript, and primary mouse astrocytes were transfected with these siRNA duplexes for six days. […] Thus, we tested whether inhibition of STAT3 signaling in primary mouse cortical astrocytes could reduce AQP4-M1 expression. […]

[7] = Intracisternal radio-tracer injection: accumulation in the brain parenchyma
Description: Anesthetized mice were fixed in a stereotaxic frame and a 30GA needle was inserted into the cisterna magna. For intracisternal injections, 10 μl of CSF tracer was injected at a rate of 2 μl/min over 5 minutes with a syringe pump (Harvard Apparatus).
After 15, 30 or 45 minutes, animals were rapidly decapitated, the skull opened, the dura removed and the brain harvested. The brain was solubilized in 2 ml Soluene (Sigma) at 45° C. overnight. 10 ml Hionic Fluor liquid scintillation cocktail (Perkin Elmer) was added and radioactivity was measured in a Multipurpose Scintillation Counter (Beckman Coulter). Brain radioactivity was normalized to total radioactivity detected in a 10 μl aliquot put directly into a scintillation vial immediately before intracisternal radio-tracer injection and expressed as the % of total injected radioactivity. ^3H-mannitol and ^3H-dextran accumulation in the brain was compared by 2-way ANOVA with Bonferroni's post-hoc test.

[8] = Intra-striate radio-tracer injection: interstitial solute clearance from the brain, wild type vs Aqp4-null
Description: To evaluate the pathways and rates of interstitial fluid and solute clearance from the brain, fluorescent and radio-labeled tracers were injected stereotactically into the brain parenchyma. Anesthetized animals were fixed in a stereotaxic frame and a 33GA needle was inserted via a small burr hole into the brain at the following coordinates: intra-cortical injections (0.22 mm caudal, 2.0 mm lateral, 1.75 mm ventral to bregma), intra-striate injections (0.22 mm caudal, 2.5 mm lateral, 3.5 mm ventral to bregma), intrathalamic injections (1.82 mm caudal, 1.25 mm lateral, 3.75 mm ventral to bregma). After needle insertion, 30 minutes was allowed to elapse to allow the needle track to swell closed. 1.0 μl of tracer (dissolved in artificial CSF) was injected at a rate of 17 nl/min.
15 min, 30 min, 1 h or 2h later, the animal was rapidly decapitated and the brain harvested. The brain was solubilized as above, and the radioactivity present in the brain was measured by liquid scintillation spectrometry. All radioactivity values were normalized to 1 μl injection standards taken immediately prior to each intra-parenchymal injection.

[9] = ratio of average mAUC of region to average mAUC of pituitary recess, mean ± SD
[10] = agent 1 μM, 30 minutes, frontal cortex

2-deoxy-2-(^18F)fluoro-D-glucose [^18FDG]
transport through the brain-wide glymphatic pathway [1]: moves rapidly through the brain-wide glymphatic pathway

CNC[C@H](O)[C@@H](O)[C@H](O)[C@H](O)CO.CNC[C@H](O)[C@@H](O)[C@H](O)[C@H](O)CO.O=C([O-])CN(CCN(CC(=O)[O-])CC(=O)O)CCN(CC(=O)[O-])CC(=O)O.[Gd+3] [Gd-DTPA, 1-deoxy-1(methylamino)D-glucitol dihydrogen [N,N-bis[2-[bis(carboxymethyl)amino]ethyl]glycinato (5-)]gadolinite(2-)(2:1)]
mAUC at the pituitary recess ([2]; not normalized, mean ± SD): 743±266 % signal change per time interval | time at which average uptake in the cerebellum peaked / reached apparent plateau ([2]; post-injection): ~90 min | time of peak of signal changes induced within the parenchyma ([2]; post-injection): 60 to 80 min | mAUC, Aqueduct [2, 9]: 0.34 ± 0.23 | mAUC, Cerebellum [2, 9]: 0.28 ± 0.11 | mAUC, Olfactory Bulb [2, 9]: 0.24 ± 0.11 | mAUC, Pontine Nucleus [2, 9]: 0.17 ± 0.09 | mAUC, Pineal recess ([2]; ratio of average mAUC of region to average mAUC of pituitary recess, mean ± SD, intrathecal infusion): 1.01 ± 0.35 | #Voxels - Zone 3, mean (SD) ([3]; most distally labeled voxels): 18295 (7407) | #Voxels - Zone 1, mean (SD) ([3]; para-vascular zone): 4048 (2146) | Zone 2#Voxels*AUC/Zone 1#Voxels*AUC, mean (SD) ([3]; rat, in vivo): 1.62 (0.60) | time-to-peak of the para-vascular red cluster ([3]; rat, in vivo): ~90 min | #Voxels - Zone 2, mean (SD) ([3]; tissue adjacent to zone 1): 15835 (5690) | transport through the brain-wide glymphatic pathway [4]: with some ‘restriction’

CC(=N)NCCCC[C@H](N)C(=O)O [L-NIL]
clearance of Aβ (glymphatic system [5]; 1 mM): increased | clearance of inulin (glymphatic system [5]; 1 mM): increased | influx of Aβ with dose (glymphatic system [6]; mouse, in vivo): dose dependent increase | influx of inulin with dose (glymphatic system [6]; mouse, in vivo): dose dependent increase

O=[N+]([O-])c1ccc2c(c1)S(=O)(=O)C=C2 [STATTIC]
AQP4-M1 expression (AQP4-M1 expression): significantly reduced

OC[C@@H](O)[C@@H](O)[C@H](O)[C@H](O)CO [[^3H]mannitol]
approximate maximal influx, plateau of one-phase association fit ([7]; % of total injected radioactivity, R2=0.3597): 39.96±5.55% | proportion of injected tracer detectable in the brain ([7]; within 45 min of intracisternal injection): ~40% | reduction of clearance from the brain interstitium in Aqp4-null mice compared to wild type ([8]; intra-striate injection): ~70%

NC(=O)CC[C@@H]1NC(=O)[C@H](Cc2ccccc2)NC(=O)[C@H](Cc2ccc(O)cc2)NC(=O)[C@@H](N)CSSC[C@@H](C(=O)N2CCC[C@H]2C(=O)N[C@@H](CCCN=C(N)N)C(=O)NCC(N)=O)NC(=O)[C@H](CC(N)=O)NC1=O [vasopressin]
brain clearance of Aβ (glymphatic system [5]; [10]): reduced | brain clearance of inulin (glymphatic system [5]; [10]): reduced

^125I-amyloid β1-40: radio-labeled amyloid β1-40 peptide tracer
accumulation in the brain after intracisternal injection, in words ([7]; mouse, in vivo): increased in a manner comparable to [^3H]dextran-10 | rate of clearance from the brain in wild-type mice, in words ([8]; mouse, in vivo): exceeded that of either [^3H]mannitol or [^3H]dextran-10 | reduction of clearance from the brain interstitium in Aqp4-null mice compared to wild type ([8]; mouse, in vivo): ~55%

angiotensin (1-7): active angiotensin metabolite acting on the Mas receptor; opposes angiotensin II (DRVYIHP; Angiotensin 1-7; UniProt P01019 25-31, looked up)
clearance of Aβ at 15 minutes (glymphatic system [5]; 1 nM and 10 nM, 15 minute time point): increased; also recorded: greater change between concentrations 10 nM and 1 nM | clearance of Aβ with dose (glymphatic system [5]; 1 μM, 0.1 μM and 0.01 μM, pre-injected into frontal cortex, 30 minutes): increased progressively with dose

angiotensin II: peptide of the renin-angiotensin system acting on AT1R and AT2R
brain clearance of Aβ (glymphatic system [5]; [10]): reduced | brain clearance of inulin (glymphatic system [5]; [10]): reduced | levels of Aβ40 remaining in brain (recovery) (glymphatic system [5]; [10]): increase | levels of inulin remaining in brain (recovery) (glymphatic system [5]; [10]): increase | influx of Aβ40 into brain (glymphatic system [6]; agent 1 μM injected into the cistern magna, 30 minutes): decrease | influx of inulin into brain (glymphatic system [6]; angiotensin II 1 μM, losartan route not given, 30 minutes): decrease

atrial natriuretic peptide (ANP): a peptide that reduces body water and sodium (SLRRSSCFGGRMDRIGAQSGLGCNSFRY; ends and bridges not checked; cysteine pairing not given here; UniProt P01160 124-151, looked up)
brain clearance of Aβ (glymphatic system [5]; [10]): reduced | brain clearance of inulin (glymphatic system [5]; [10]): reduced
